# Assay results published in article doi:10.1101/2023.03.24.534094v2 (biorxiv, 2023).
# Like-named read-outs stand apart in the source and are kept apart here.
# Assays:
# [1] = biological target: T1, MST2 (Homo sapiens, UniProt Q13188); test: biochemical
# T1 sequence (Q13188 1-491): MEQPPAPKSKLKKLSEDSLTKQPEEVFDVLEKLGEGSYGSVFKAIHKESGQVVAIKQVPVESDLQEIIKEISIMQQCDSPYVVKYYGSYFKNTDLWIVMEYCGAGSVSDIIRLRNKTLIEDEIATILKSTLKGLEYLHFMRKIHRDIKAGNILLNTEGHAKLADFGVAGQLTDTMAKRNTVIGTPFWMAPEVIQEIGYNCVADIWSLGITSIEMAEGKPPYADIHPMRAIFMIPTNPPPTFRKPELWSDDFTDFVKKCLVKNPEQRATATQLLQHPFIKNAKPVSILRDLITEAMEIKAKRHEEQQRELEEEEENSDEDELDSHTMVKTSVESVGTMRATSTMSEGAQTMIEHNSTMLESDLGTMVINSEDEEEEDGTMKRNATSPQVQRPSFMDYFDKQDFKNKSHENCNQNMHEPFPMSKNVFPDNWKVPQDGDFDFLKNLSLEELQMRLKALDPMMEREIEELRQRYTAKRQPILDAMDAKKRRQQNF
# [2] = biological target: MST4 (Homo sapiens, UniProt Q9P289); test: biochemical
# [3] = biological target: Erk3 (Homo sapiens, UniProt Q16659); test: biochemical
# [4] = biological target: EpHA5 (Homo sapiens, UniProt P54756); test: NanoBRET target engagement; type: cell-based
# [5] = biological target: EpHB2 (Homo sapiens, UniProt P29323); test: NanoBRET target engagement; type: cell-based
# [6] = biological target: EpHA3 (Homo sapiens, UniProt P29320); test: NanoBRET target engagement; type: cell-based
# [7] = biological target: EpHA4 (Homo sapiens, UniProt P54764); test: NanoBRET target engagement; type: cell-based
# [8] = biological target: GAK (Homo sapiens, UniProt O14976); test: NanoBRET target engagement; type: cell-based
# [9] = biological target: MSSK1 (Homo sapiens, UniProt Q9UPE1); test: biochemical
# [10] = biological target: EpHA2 (Homo sapiens, UniProt P29317); test: NanoBRET target engagement; type: cell-based
# [11] = biological target: ABL1 (Homo sapiens, UniProt P00519); test: NanoBRET target engagement; type: cell-based
# [12] = biological target: EpHB3 (Homo sapiens, UniProt P54753); test: NanoBRET target engagement; type: cell-based
# [13] = biological target: T2, DCAMKL1 (Homo sapiens, UniProt O15075); test: biochemical
# T2 sequence (O15075 1-740): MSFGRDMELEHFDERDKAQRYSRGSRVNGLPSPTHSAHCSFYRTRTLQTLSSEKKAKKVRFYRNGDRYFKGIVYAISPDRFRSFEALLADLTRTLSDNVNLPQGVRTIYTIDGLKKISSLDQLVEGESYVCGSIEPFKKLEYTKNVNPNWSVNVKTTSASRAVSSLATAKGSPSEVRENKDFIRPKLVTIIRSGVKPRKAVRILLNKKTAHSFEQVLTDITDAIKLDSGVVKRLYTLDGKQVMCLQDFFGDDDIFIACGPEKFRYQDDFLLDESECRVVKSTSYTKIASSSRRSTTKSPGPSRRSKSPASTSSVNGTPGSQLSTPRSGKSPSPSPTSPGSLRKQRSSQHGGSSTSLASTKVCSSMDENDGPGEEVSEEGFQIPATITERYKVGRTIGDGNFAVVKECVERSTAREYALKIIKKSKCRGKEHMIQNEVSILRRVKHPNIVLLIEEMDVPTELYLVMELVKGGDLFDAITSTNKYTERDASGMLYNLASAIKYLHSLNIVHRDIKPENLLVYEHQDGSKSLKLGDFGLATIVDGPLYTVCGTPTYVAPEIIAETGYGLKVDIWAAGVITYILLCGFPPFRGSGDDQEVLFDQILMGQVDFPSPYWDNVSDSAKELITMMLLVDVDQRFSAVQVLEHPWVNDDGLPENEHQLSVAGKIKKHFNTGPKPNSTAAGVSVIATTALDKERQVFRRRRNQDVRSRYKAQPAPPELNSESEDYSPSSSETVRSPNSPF
# [14] = biological target: T3, BMX (Homo sapiens, UniProt P51813); test: NanoBRET target engagement; type: cell-based
# T3 sequence (P51813 1-675): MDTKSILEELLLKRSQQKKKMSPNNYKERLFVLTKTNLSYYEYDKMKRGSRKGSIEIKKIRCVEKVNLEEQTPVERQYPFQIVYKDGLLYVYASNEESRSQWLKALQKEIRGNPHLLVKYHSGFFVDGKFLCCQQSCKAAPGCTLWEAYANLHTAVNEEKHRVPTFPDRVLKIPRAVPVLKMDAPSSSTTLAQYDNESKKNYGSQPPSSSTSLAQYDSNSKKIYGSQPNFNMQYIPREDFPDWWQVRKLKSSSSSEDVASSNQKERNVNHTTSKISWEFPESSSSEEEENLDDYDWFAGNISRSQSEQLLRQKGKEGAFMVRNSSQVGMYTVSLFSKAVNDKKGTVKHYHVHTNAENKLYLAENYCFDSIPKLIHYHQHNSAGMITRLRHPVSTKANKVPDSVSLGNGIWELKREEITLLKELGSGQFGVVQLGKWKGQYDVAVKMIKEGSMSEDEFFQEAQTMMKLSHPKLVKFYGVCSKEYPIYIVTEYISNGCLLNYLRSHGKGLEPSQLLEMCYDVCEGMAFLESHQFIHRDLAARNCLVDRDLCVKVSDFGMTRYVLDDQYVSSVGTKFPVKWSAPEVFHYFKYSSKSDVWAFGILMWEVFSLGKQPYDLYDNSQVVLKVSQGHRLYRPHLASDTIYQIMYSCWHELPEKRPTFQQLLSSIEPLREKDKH
# Sequence of EpHB2 (P29323 19-1055): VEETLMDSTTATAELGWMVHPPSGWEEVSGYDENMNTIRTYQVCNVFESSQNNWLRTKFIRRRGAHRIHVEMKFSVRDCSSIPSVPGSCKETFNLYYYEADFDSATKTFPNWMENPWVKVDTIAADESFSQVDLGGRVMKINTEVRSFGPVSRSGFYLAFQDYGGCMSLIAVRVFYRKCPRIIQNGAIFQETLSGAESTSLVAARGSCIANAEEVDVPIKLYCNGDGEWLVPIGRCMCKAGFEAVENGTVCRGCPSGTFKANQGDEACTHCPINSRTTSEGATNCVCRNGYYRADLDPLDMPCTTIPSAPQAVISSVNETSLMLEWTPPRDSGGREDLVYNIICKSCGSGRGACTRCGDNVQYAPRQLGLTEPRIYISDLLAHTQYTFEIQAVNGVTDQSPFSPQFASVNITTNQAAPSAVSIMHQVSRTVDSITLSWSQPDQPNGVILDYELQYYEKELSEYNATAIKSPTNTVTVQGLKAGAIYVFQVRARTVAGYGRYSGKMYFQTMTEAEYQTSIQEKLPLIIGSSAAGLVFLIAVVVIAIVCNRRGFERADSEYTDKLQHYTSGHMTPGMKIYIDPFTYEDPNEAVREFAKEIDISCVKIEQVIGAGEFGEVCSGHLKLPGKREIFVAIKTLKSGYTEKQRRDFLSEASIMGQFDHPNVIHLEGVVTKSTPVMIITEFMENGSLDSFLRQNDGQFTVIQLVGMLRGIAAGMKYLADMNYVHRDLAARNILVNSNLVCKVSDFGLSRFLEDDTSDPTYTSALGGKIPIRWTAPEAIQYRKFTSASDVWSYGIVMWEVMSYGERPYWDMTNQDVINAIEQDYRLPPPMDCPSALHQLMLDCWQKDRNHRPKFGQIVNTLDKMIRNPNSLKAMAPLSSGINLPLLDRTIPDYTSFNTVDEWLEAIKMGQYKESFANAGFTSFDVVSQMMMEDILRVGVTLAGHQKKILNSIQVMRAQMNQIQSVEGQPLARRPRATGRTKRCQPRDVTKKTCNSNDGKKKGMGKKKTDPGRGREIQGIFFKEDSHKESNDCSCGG
# Sequence of ABL1 (P00519 whole entry): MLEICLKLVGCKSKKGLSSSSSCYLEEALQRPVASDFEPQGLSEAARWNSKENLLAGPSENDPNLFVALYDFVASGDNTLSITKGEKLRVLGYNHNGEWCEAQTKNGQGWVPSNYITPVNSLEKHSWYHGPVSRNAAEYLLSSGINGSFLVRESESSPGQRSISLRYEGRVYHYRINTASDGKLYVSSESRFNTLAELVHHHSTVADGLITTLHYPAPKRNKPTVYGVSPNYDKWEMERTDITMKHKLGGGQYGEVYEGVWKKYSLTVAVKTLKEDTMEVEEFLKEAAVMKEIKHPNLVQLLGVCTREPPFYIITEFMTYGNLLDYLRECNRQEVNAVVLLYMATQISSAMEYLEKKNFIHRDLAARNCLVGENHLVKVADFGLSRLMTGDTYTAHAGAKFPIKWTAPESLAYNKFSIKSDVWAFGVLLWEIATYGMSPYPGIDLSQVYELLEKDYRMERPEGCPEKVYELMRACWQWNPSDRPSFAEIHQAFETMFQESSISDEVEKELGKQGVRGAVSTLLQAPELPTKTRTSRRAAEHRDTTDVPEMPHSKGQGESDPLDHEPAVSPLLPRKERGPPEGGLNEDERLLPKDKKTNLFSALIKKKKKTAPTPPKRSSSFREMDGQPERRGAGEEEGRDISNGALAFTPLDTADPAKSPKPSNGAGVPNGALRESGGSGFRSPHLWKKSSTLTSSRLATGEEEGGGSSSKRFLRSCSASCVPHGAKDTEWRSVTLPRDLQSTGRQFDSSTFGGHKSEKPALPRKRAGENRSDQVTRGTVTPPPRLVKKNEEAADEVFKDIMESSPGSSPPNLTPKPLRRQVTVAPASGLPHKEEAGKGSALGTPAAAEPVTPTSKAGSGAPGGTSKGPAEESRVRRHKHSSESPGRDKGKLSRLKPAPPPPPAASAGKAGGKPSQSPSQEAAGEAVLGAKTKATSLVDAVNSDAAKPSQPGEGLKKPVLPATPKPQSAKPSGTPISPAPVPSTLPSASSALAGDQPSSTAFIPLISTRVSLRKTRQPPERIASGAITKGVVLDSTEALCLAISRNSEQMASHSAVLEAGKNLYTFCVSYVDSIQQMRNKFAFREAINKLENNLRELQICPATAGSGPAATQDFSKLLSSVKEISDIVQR
# Sequence of EpHA4 (P54764 20-986): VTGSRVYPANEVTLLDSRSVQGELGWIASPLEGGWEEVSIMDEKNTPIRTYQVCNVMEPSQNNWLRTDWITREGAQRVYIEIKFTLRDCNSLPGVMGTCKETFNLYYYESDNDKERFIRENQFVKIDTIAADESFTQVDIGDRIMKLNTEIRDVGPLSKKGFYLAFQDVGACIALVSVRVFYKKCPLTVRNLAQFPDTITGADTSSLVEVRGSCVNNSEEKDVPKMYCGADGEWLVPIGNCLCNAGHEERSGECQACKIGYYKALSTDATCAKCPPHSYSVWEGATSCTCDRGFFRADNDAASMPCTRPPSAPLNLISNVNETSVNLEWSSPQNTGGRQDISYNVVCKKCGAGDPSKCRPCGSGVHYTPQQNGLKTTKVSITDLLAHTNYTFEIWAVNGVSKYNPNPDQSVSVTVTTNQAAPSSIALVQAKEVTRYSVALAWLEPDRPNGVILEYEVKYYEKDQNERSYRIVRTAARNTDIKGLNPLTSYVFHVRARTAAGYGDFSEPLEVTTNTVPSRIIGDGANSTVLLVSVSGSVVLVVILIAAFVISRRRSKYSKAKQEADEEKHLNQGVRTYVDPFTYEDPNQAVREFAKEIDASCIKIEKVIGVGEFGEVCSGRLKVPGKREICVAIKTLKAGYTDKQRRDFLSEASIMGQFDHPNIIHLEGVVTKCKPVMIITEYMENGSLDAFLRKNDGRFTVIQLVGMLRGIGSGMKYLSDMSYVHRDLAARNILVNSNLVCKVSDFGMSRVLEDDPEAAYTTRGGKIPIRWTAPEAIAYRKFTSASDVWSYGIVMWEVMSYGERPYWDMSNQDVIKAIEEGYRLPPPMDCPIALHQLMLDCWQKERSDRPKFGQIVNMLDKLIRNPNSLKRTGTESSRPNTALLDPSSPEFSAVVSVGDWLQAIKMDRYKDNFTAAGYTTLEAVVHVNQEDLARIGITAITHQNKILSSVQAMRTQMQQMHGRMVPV
# Sequence of EpHA3 (P29320 21-983): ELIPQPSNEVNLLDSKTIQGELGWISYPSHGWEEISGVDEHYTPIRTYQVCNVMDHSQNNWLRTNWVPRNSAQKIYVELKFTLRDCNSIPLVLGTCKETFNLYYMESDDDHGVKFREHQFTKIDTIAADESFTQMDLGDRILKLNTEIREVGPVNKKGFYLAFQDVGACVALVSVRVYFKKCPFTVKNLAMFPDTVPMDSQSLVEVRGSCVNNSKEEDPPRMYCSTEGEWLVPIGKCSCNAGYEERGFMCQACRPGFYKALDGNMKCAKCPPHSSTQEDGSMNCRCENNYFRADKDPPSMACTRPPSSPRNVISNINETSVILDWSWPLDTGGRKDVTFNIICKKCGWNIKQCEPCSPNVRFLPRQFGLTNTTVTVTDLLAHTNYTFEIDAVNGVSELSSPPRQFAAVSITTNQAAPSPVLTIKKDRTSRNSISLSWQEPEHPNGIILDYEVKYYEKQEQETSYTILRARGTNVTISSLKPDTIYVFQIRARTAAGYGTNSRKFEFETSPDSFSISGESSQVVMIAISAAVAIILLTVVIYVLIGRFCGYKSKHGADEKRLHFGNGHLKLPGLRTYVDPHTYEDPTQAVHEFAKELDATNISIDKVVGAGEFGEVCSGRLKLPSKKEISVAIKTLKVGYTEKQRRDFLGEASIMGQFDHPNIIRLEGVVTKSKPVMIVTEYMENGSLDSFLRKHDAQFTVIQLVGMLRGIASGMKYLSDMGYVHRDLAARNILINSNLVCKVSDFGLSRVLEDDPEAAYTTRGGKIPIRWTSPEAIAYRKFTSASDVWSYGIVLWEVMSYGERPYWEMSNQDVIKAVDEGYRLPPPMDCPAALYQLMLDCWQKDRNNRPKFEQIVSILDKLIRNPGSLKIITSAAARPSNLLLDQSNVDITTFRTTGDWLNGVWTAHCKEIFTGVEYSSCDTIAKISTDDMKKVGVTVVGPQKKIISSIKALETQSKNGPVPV
# Sequence of EpHA5 (P54756 25-1037): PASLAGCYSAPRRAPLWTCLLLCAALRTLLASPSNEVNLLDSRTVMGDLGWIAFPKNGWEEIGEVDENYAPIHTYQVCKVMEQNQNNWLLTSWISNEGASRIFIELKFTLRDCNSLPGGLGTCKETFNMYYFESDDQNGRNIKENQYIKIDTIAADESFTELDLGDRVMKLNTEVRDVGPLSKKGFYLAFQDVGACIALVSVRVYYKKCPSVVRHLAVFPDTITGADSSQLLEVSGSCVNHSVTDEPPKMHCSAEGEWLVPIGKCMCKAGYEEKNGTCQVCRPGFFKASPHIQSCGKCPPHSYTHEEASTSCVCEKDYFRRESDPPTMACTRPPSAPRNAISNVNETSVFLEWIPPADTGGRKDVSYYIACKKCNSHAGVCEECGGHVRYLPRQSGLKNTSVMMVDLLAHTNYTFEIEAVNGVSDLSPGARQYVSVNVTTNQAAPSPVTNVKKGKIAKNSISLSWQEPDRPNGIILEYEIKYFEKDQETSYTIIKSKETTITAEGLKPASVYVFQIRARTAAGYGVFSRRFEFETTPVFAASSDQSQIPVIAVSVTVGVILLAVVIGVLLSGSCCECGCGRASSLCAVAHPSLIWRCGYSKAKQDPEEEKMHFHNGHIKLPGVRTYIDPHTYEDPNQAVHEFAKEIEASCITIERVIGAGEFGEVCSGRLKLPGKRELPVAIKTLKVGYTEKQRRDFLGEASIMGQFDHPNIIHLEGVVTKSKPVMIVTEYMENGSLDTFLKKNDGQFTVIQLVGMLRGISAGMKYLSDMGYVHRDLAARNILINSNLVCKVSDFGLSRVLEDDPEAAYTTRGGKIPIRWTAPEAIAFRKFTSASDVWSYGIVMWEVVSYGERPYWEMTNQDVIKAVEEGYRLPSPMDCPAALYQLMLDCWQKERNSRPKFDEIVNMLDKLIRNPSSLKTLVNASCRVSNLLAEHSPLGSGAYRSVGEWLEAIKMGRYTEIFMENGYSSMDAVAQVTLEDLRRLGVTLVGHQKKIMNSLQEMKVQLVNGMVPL
smiles,measurement,setting,value
"CNc1ncc2cc(-c3ccc(-c4cccc(C)n4)cc3Cl)c(=O)n(CC3OCC(N)CO3)c2n1 (centres unmarked) [compound 2, G-5555]",∆Tm G-5555 (2),"[1]; 10 µM, binder",6.9 degC
same,∆Tm G-5555 (2),"[2]; 10 µM, binder",6.1 degC
same,dTm G-5555 (2),"[3]; 10 µM, binder",0.3 °C
"CNc1ncc2cc(-c3ccccc3Cl)c(=O)n(CCCCN)c2n1 [compound 4, 8-(4-Aminobutyl)-6-(2-chlorophenyl)-2-(methylamino)pyrido[2,3-d]pyrimidin-7(8H)-one]",IC50,[4],928 ± 6 nM
same,IC50,[5],> 1000 nM
same,IC50,[6],313 ± 121 nM
same,ΔTm at 10 µM,[1]; read-out: ∆Tm MR21 (4),1 °C
same,IC50,[7],66 ± 38 nM
same,IC50,[8],> 1000 nM
same,ΔTm at 10 µM,[9]; read-out: dTm MR21 (4),0.2 °C
same,IC50,[10],210 ± 36 nM
same,IC50,[11],> 1000 nM
same,IC50,[12],> 1000 nM
"CNc1ncc2cc(-c3cc(F)ccc3F)c(=O)n(CCCCN)c2n1 [compound 5, 8-(4-Aminobutyl)-6-(2,5-difluorophenyl)-2-(methylamino)pyrido[2,3-d]pyrimidin-7(8H)-one]",ΔTm at 10 µM,[2]; read-out: ∆Tm MR22 (5),1.4 °C
same,ΔTm at 10 µM,[3]; read-out: dTm MR22 (5),0.5 °C
same,ΔTm at 10 µM,[9]; read-out: dTm MR22 (5),-0.1 °C
"CNc1ncc2cc(-c3cc(Cl)ccc3Cl)c(=O)n(CCCCN)c2n1 [compound 8, 8-(4-Aminobutyl)-6-(2,5-dichlorophenyl)-2-(methylamino)pyrido[2,3-d]pyrimidin-7(8H)-one]",IC50,[4],> 1000 nM
same,ΔTm at 10 µM,[13]; read-out: dTm 8,1.2 °C
same,IC50,[5],> 1000 nM
same,IC50,[14],> 1000 nM
same,IC50,[6],> 1000 nM
same,IC50,[7],346 ± 1 nM
same,IC50,[10],> 1000 nM
same,IC50,[11],> 1000 nM
same,IC50,[12],> 1000 nM
"CNc1ncc2cc(-c3cc(C(F)(F)F)ccc3Cl)c(=O)n(CCCCN)c2n1 [compound 9, 8-(4-Aminobutyl)-6-(2-chloro-5-(trifluoromethyl)phenyl)-2-(methylamino)pyrido[2,3-d]pyrimidin-7(8H)-one]",ΔTm at 10 µM,[13]; read-out: dTm 9,0.5 °C
"CNc1ncc2cc(-c3cc(Cl)ccc3Br)c(=O)n(CCCCN)c2n1 [compound 10, 8-(4-Aminobutyl)-6-(2-bromo-5-chlorophenyl)-2-(methylamino)pyrido[2,3-d]pyrimidin-7(8H)-one]",ΔTm at 10 µM,[13]; read-out: dTm 10,0.9 °C
"CNc1ncc2cc(-c3cc(Br)ccc3Br)c(=O)n(CCCCN)c2n1 [compound 11, 8-(4-Aminobutyl)-6-(2,5-dibromophenyl)-2-(methylamino)pyrido[2,3-d]pyrimidin-7(8H)-one]",ΔTm at 10 µM,[13]; read-out: dTm 11,1.1 °C
"CNc1ncc2cc(-c3cc(F)c(-c4cccc(C)n4)cc3F)c(=O)n(CCCCN)c2n1 [compound 12, 8-(4-Aminobutyl)-6-(2,5-difluoro-4-(6-methylpyridin-2-yl)phenyl)-2-(methylamino)pyrido[2,3-d]pyrimidin-7(8H)-one]",ΔTm at 10 µM,[13]; read-out: dTm 12,-1.6 °C
